{"source": "patent US20240199677A1", "about": "“GLYCOSYLTRANSFERASE INHIBITORS” (CALIFORNIA INSTITUTE OF TECHNOLOGY, priority 2018, published 2024)", "key": {"[1]": {"system": "C. difficile spores", "assay": "Spore viability testing", "assay_type": "cell-based", "settings": "for Effect on viability of C. difficile spores (CFU): x2 MIC, 24 hours; for Inhibition of spore germination: x5 MIC"}, "[2]": {"system": "C. difficile ATCC43596", "assay": "Minimum inhibitory concentration assay", "settings": "for MIC: Clostridioides difficile, ATCC43596, 48 h, read-out: C. difficile ATCC43596 MIC; for C. difficile ATCC43596 MIC: 48 h, 37° C."}, "[3]": {"system": "Vero cells", "assay": "Cytotoxicity MTT assay, Vero cells", "assay_type": "cell-based, monkey", "method": "(§1) Cytotoxicity Assays. Cytotoxicity assays were performed using Vero monkey kidney (ATCC CCL-81) and HepG2 human hepatoblastoma cell (ATCC HB-8065) lines. Vero or HepG2 cells were cultured in 75 cm^2 flasks and transferred to 96-well cell culture plates using ATCC-formulated Eagle's minimum essential medium containing 10% FBS, penicillin, and streptomycin. Serially diluted aliquots of each test compound at concentrations ranging from 0.78-200 μg/mL were added to the cells. […] The plates were incubated and cytotoxic effects were determined via the MTT assay.\n(§2) Selected molecules were tested for cytotoxicity (IC50) in cancer and healthy cells via a MTT colorimetric assay.\n(§3) Cytotoxicity Assays. For Vero cells: Vero cell was cultured in Complete eagle's minimum essential growth medium (EMEM) containing L-glutamine, sodium pyruvate, minimum essential amino acids, penicillin-streptomycin and 10% fetal bovine serum. Inoculating number of cells were 400,000 cells/mL and a final 40,000 cells/well. After 72 h of exposure of molecules to this cell line at concentrations ranging from 0.78 to 200 μg/mL, the culture medium was changed to complete EMEM without phenol red before addition of yellow tetrazolium dye; MTT. Viability was assessed on the basis of cellular conversion of MTT into a purple formazan product. The absorbance of the colored formazan product was measured at 570 nm by BioTek Synergy HT Spectrophotometer. Linearity of the MTT response to the cell number was determined."}, "[4]": {"assay": "Hemolysis, sheep blood", "assay_type": "cell-based", "settings": "sheep, sheep blood"}, "[5]": {"system": "MraY", "settings": "read-out: MraY inhibition IC50"}, "[6]": {"system": "AsPc-1 cells", "assay": "Synergistic assay (checkerboard), 11 and Gemcitabine", "assay_type": "cell-based", "method": "(§4) The FIC index was calculated according to the following equation. ΣFIC=FICA+FICB=CA/MICA+CB/MICB where MICA and MICB are MIC of drugs A and B, CA and CB are the concentrations of drugs A and B used in combination. In these interaction studies, ΣFIC of less than 0.5 represents synergistic activity.\nThese experiments were performed in the same manner as those of Example 7."}, "[7]": {"system": "L12210", "assay": "Cytotoxicity MTT assay, L12210", "assay_type": "cell-based", "method": "as §2\n(§5) Each cell was cultured in recommended medium by ATCC, and the IC50 data were obtained with each cell line."}, "[8]": {"system": "LoVo", "assay": "Cytotoxicity MTT assay, LoVo", "assay_type": "cell-based", "method": "as §2, §5"}, "[9]": {"system": "HPAF-II", "assay": "Cytotoxicity MTT assay, HPAF-II", "assay_type": "cell-based", "method": "as §2, §5"}, "[10]": {"system": "AsPc-1 cells", "assay": "Synergistic assay (checkerboard), 11 and Paclitaxel", "assay_type": "cell-based", "method": "as §4"}, "[11]": {"system": "SK-OV-3", "assay": "Cytotoxicity MTT assay, SK-OV-3", "assay_type": "cell-based", "method": "as §2, §5"}, "[12]": {"assay": "Cytotoxicity MTT assay, Vero cells", "assay_type": "cell-based, monkey", "settings": "monkey", "method": "as §1, §2, §3"}, "[13]": {"system": "MDA-MB-435S", "assay": "Cytotoxicity MTT assay, MDA-MB-435S", "assay_type": "cell-based", "method": "as §2, §5"}, "[14]": {"system": "AsPc-1", "assay": "Cytotoxicity MTT assay, AsPc-1", "assay_type": "cell-based", "method": "as §2, §5"}, "[15]": {"system": "KB", "assay": "Cytotoxicity MTT assay, KB", "assay_type": "cell-based", "method": "as §2, §5"}, "[16]": {"system": "Panc-1", "assay": "Cytotoxicity MTT assay, Panc-1", "assay_type": "cell-based", "method": "as §2, §5"}, "[17]": {"system": "Caco-2", "assay": "Cytotoxicity MTT assay, Caco-2", "assay_type": "cell-based", "settings": "human", "method": "as §2, §5"}, "[18]": {"system": "HepG2", "assay": "Cytotoxicity MTT assay, HepG2", "assay_type": "cell-based", "settings": "human"}, "[19]": {"target": "M. jannaschii AgIH (Methanocaldococcus jannaschii (strain ATCC 43067 / DSM 2661 / JAL-1 / JCM 10045 / NBRC 100440) (Methanococcus jannaschii), UniProt Q58513)", "sequence (Q58513 whole entry, looked up)": "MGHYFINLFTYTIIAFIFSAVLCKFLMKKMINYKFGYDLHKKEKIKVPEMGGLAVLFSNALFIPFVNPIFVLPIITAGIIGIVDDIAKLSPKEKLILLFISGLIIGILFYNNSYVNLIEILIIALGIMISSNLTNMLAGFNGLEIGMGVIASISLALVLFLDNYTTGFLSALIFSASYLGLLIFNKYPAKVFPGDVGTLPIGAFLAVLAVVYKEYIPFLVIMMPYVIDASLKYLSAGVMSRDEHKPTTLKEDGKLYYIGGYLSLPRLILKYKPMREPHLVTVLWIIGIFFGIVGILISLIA", "settings": "read-out: AgIH inhibition IC50, M. jannaschii AgIH"}}, "note": "Where two headings read alike, the source gives them in different places."}
{"compound": "CCCCCCCc1ccc(NC(=O)CCCN(C)[C@H](C(N)=O)[C@H](OC2O[C@H](CN)[C@@H](O)[C@H]2O)[C@H]2O[C@@H](n3ccc(=O)[nH]c3=O)C(O)[C@H]2O)cc1", "note": "(stereo partly drawn) [Compound 9]", "values": [{"measurement": "Effect on viability of C. difficile spores (CFU)", "setting": "[1]", "value": "caused loss of viability of C. difficile spores"}, {"measurement": "Anti-C. difficile activity", "setting": "[2]", "value": "display anti-C. difficile activity"}, {"measurement": "MIC", "setting": "[2]", "value": 25, "unit": "µg/mL"}]}
{"compound": "CCCCCCCc1ccc(NC(=O)CCCN[C@H](C(N)=O)[C@H](OC2O[C@H](CN)[C@@H](O)[C@H]2O)[C@H]2O[C@@H](n3ccc(=O)[nH]c3=O)C(O)[C@H]2O)cc1", "note": "(stereo partly drawn) [Compound 10]", "values": [{"measurement": "Effect on viability of C. difficile spores (CFU)", "setting": "[1]", "value": "caused loss of viability of C. difficile spores"}, {"measurement": "IC50", "setting": "[3]; Primates, Vero, Table 2, read-out: Vero cells IC50", "value": 7080, "unit": "nM"}, {"measurement": "IC50", "setting": "[4]", "value": 70, "unit": "µM"}, {"measurement": "Anti-C. difficile activity", "setting": "[2]", "value": "display anti-C. difficile activity"}]}
{"compound": "CN(CCCC(=O)NCc1ccc(N2CCC(Oc3ccc(C(F)(F)F)cc3)CC2)cc1)[C@H](C(N)=O)[C@H](O[C@@H]1O[C@H](CN)[C@@H](O)[C@H]1O)[C@H]1O[C@@H](n2ccc(=O)[nH]c2=O)[C@H](O)C1O", "note": "(stereo partly drawn) [Compound 12]", "values": [{"measurement": "Anti-C. difficile activity", "setting": "[2]", "value": "display anti-C. difficile activity"}, {"measurement": "MIC", "setting": "[2]", "value": 50, "unit": "µg/mL"}]}
{"compound": "CN(CCCN)[C@H](C(=O)O)[C@H](O[C@@H]1O[C@H](CN)[C@@H](O)[C@H]1O)[C@H]1O[C@@H](n2ccc(=O)[nH]c2=O)[C@H](O)[C@@H]1O", "note": "[FR-900493 (1), FR-900493, reference compound]", "values": [{"measurement": "IC50", "setting": "[5]", "value": 25, "unit": "µM"}, {"measurement": "C. difficile ATCC43596 MIC", "setting": "[2]", "value": ">50", "unit": "µg/mL"}]}
{"compound": "Nc1ccn([C@@H]2O[C@H](CO)[C@@H](O)C2(F)F)c(=O)n1", "note": "[Gemcitabine, reference compound]", "values": [{"measurement": "IC50", "setting": "[6]; Homo sapiens, ASPC1, Gemcitabine alone, AsPc-1 cells, read-out: IC50 B", "value": 390, "unit": "nM"}, {"measurement": "Concentration in combination resulting in AsPc-1 cell death", "setting": "[6]; as low as, 11 together with Gemcitabine", "value": 0.977, "unit": "µM"}]}
{"compound": "CC(=O)O[C@H]1C(=O)[C@@]2(C)[C@H]([C@H](OC(=O)c3ccccc3)[C@]3(O)C[C@H](OC(=O)[C@H](O)[C@@H](NC(=O)c4ccccc4)c4ccccc4)C(C)=C1C3(C)C)[C@]1(OC(C)=O)CO[C@@H]1C[C@@H]2O", "note": "[Taxol, Paclitaxel]", "values": [{"measurement": "IC50", "setting": "[7]; read-out: Cytotoxicity IC50 L12210", "value": 550, "unit": "nM"}, {"measurement": "IC50", "setting": "[8]; Homo sapiens, LoVo, read-out: Cytotoxicity IC50 LoVo", "value": 57, "unit": "nM"}, {"measurement": "IC50", "setting": "[9]; Homo sapiens, HPAF-II, read-out: Cytotoxicity IC50 HPAF-II", "value": 20, "unit": "nM"}, {"measurement": "IC50", "setting": "[10]; Homo sapiens, ASPC1, Paclitaxel alone, AsPc-1 cells, read-out: IC50 B", "value": 550, "unit": "nM"}, {"measurement": "Taxol concentration to kill AsPc-1 cells when combined with 11", "setting": "[10]; as low as, combined with 11", "value": 7, "unit": "nM"}, {"measurement": "IC50", "setting": "[11]; Homo sapiens, SK-OV-3, read-out: Cytotoxicity IC50 SK-OV-3", "value": 1080, "unit": "nM"}, {"measurement": "IC50 at 72 h", "setting": "[12]", "value": 190, "unit": "nM"}, {"measurement": "IC50", "setting": "[13]; Homo sapiens, MDA-MB-435S, read-out: Cytotoxicity IC50 MDA-MB-435S", "value": 110, "unit": "nM"}, {"measurement": "IC50", "setting": "[14]; Homo sapiens, ASPC1, read-out: Cytotoxicity IC50 AsPc-1", "value": 190, "unit": "nM"}, {"measurement": "IC50", "setting": "[15]; Homo sapiens, KB, read-out: Cytotoxicity IC50 KB", "value": 790, "unit": "nM"}, {"measurement": "IC50", "setting": "[16]; Homo sapiens, PANC-1, read-out: Cytotoxicity IC50 Panc-1", "value": 20, "unit": "nM"}]}
{"compound": "CC(=O)NC[C@H]1CN(c2ccc(N3CCOCC3)c(F)c2)C(=O)O1", "note": "[linezolid, reference compound]", "values": [{"measurement": "Inhibition of spore germination", "setting": "[1]", "value": "did not inhibit the spore germination"}]}
{"compound": "Cc1ncc([N+](=O)[O-])n1CCO", "note": "[metronidazole, reference compound]", "values": [{"measurement": "Inhibition of spore germination", "setting": "[1]", "value": "did not inhibit the spore germination"}]}
{"compound": "CN[C@H](CC(C)C)C(=O)N[C@H]1C(=O)N[C@@H](CC(N)=O)C(=O)N[C@H]2C(=O)N[C@H]3C(=O)N[C@H](C(=O)N[C@H](C(=O)O)c4cc(O)cc(O)c4-c4cc3ccc4O)[C@H](O)c3ccc(c(Cl)c3)Oc3cc2cc(c3O[C@@H]2O[C@H](CO)[C@@H](O)[C@H](O)[C@H]2O[C@H]2C[C@](C)(N)[C@H](O)[C@H](C)O2)Oc2ccc(cc2Cl)[C@H]1O", "note": "[vancomycin, reference compound]", "values": [{"measurement": "Inhibition of spore germination", "setting": "[1]", "value": "did not inhibit the spore germination"}, {"measurement": "MIC", "setting": "[2]", "value": 2.5, "unit": "µg/mL"}]}
{"compound": "Tunicamycin", "values": [{"measurement": "IC50", "setting": "[7]; mouse", "value": 1700, "unit": "nM"}, {"measurement": "IC50", "setting": "[8]; human", "value": 1700, "unit": "nM"}, {"measurement": "IC50", "setting": "[9]; human", "value": "< 98", "unit": "nM"}, {"measurement": "IC50", "setting": "[17]", "value": 950, "unit": "nM"}, {"measurement": "IC50", "setting": "[11]; human", "value": 1850, "unit": "nM"}, {"measurement": "IC50", "setting": "[3]; Table 2, read-out: Vero cells IC50", "value": 120, "unit": "nM"}, {"measurement": "IC50", "setting": "[3]; Table 3, 72 h exposure, read-out: Cytotoxicity IC50 Vero", "value": 120, "unit": "nM"}, {"measurement": "IC50", "setting": "[18]", "value": 190, "unit": "nM"}, {"measurement": "IC50", "setting": "[13]; human", "value": 900, "unit": "nM"}, {"measurement": "IC50", "setting": "[14]; human", "value": 460, "unit": "nM"}, {"measurement": "IC50", "setting": "[15]; human", "value": 2500, "unit": "nM"}, {"measurement": "C. difficile ATCC43596 MIC", "setting": "[2]", "value": ">50", "unit": "µg/mL"}, {"measurement": "IC50", "setting": "[16]; human", "value": 625, "unit": "nM"}, {"measurement": "IC50", "setting": "[19]", "value": 13.3, "unit": "µM"}]}
